What was measured:
Sprague-Dawley rats [1] = assay: ICV infusion of humanin or F6A HN with basal and hyperinsulinemic clamp (Example 2); format: in vivo, rat
Description: Young (3 mo old, n=6 in each group), male Sprague-Dawley rats (Charles River Laboratories, Wilmington, Mass.) were used for this study. Rats were housed in individual cages and were subjected to a standard light (6:00 AM to 6:00 PM)—dark (6:00 PM to 6:00 AM) cycle. All rats were fed ad libitum using regular rat chow that consisted of 64% carbohydrate, 30% protein, and 6% fat with a physiological fuel value of 3.3-kcal/g chow. 2 to 4 weeks before the in vivo study, the rats were anesthetized by inhalation of isoflurane and ICV cannula was placed in the third ventricle for infusions of humanin, humanin analog F6A HN or artificial CSF (aCSF), as previously described (Muzumdar et al., 2003) (FIG. 6). Briefly, a 26-gauge stainless steel guide cannula (Plastics One, Roanoke, Va.) was chronically implanted into the third ventricles using the following coordinates from bregma: anterior-posterior; +0.2 mm dorsal-ventral; −9.0 mm medial-lateral; 0.0 directly on the mid-sagittal suture, followed by a 28-gauge dummy cannula, inserted to prevent clogging of the guide cannula. The implant was secured to the skull with Caulk Grip dental cement, and the skin was closed over the implant using wound clips. The recovery of rats from the surgical stress was monitored with daily weight, food intake, and movement.
Upon recovery of body weight, usually a week, indwelling catheters were placed in the right internal jugular vein and in the left carotid artery (Muzumdar et al., 2003). The venous catheter was extended to the level of the right atrium, and the arterial catheter was advanced to the level of the aortic arch. Recovery was continued until body weight was within 3% of the pre-operative weight (˜4-6 days). In the rats that received peripheral humanin, only the vascular catheters were placed.
Studies were performed in unrestrained rats using the insulin clamp technique, in combination with high performance liquid chromatography-purified [3-^3H]glucose, as described previously (Liu et al., 1998). Food was removed for ˜5 h before the in vivo protocol. All studies lasted 360 min and included a 120-min equilibration period, a 120-min basal period for assessment of the basal glucose turnover, and a 120-min hyperinsulinemic clamp period. All rats received ICV infusions (bolus followed by continuous ICV infusions of humanin, F6A HN or aCSF, depending on the group) over the entire 6 hours of the study. At the beginning of the basal period and 120 min before starting the glucose/insulin infusions, a primed-continuous infusion of high performance liquid chromatography-purified [3-^3H]glucose (NEN Life Science Products, Boston, Mass.; 20 μCi of bolus, 0.2 μCi/min) was initiated and maintained throughout the remaining 4 h of the study. In the final 2 hours of the study, the rats were subjected to hyperinsulinemic clamp. The protocol followed during the insulin clamp study was similar to that previously described (Liu et al., 1998). Briefly, a primed-continuous infusion of regular insulin (3 milliunits/kg-min) was administered, and a variable infusion of a 25% glucose solution was started and periodically adjusted to clamp the plasma glucose concentration at 7-8 mM. To prevent endogenous insulin secretion and in order to control for possible effects of ICV infusions on the endocrine pancreas, somatostatin (1.5 μg/kg-min) was also infused in all the groups.
A bolus of humanin (6 μg) was followed by a continuous infusion over 6 hours (total dose of 18 μg, 0.1 μg/kg/min).
F6A HN has one amino acid substitution (F6A-phenylalanine to alanine on position 6) and has been characterized. A bolus of F6 A HN ([…]) was followed by a continuous infusion over 6 hours (total 18 μg, 0.1 μg/kg/min).
Plasma glucose (sample volume 10 μl) was measured by the glucose oxidase method (Glucose Analyzer II, Beckman Instruments, Palo Alto, Calif.). […]

Sprague-Dawley rats [2] = assay: Intravenous infusion of humanin or analogs during hyperinsulinemic clamp; format: in vivo, rat; conditions: IV 0.0375 mg/kg/hr, clamp
[3] = tested on: phospho STAT-3 in hypothalamus; assay: Western blot of hypothalamic STAT-3 phosphorylation after ICV infusion; format: in vivo, rat; conditions: within an hour of ICV HN infusion
Procedure: The indicated tissues were homogenized in 20 mM MOPS, 2 mM EGTA, 5 mM EDTA, 30 mM sodium fluoride, 40 mM beta-glycerophosphate, 10 mM sodium pyrophosphate, 2 mM orthovanadate, 0.5% NP-40 and complete protease inhibitor cocktail (Roche, Indianapolis, Ind., USA) and centrifuged at 12,000 g for 15 min and the supernatant was harvested while carefully avoiding the lipid layer on top. Protein concentration was measured with a BCA protein quantification kit (Pierce, Rockford, Ill., USA). Protein extracts were separated on 4-12% NuPAGE (Invitrogen, Carlsbad, Calif., USA) gels and were blotted onto Immobilon FL PVDF (Millipore, Billerica, Mass., USA). […] After three washes in TBS-T and a final wash in TBS the blots were scanned using the LI-COR Odyssey (LI-COR, Lincoln, Nebr., USA) and quantified using Odyssey 2.0 software based on direct fluorescence measurement.
For acute signaling studies, rats were injected ICV with either aCSF, 20 μg of HN or F6A (dissolved in aCSF) over 5 min, and sacrificed 30 min later. […] Samples were also obtained from these tissues at the end of the clamp and western blot analysis was performed as described previously (Muzumdar et al. 2003) The blots were scanned using the LI-COR Odyssey (LI-COR, Lincoln, Nebr., USA) and quantified using Odyssey 2.0 software based on direct fluorescence measurement. […]

IGF-1 = IGF-1 (Homo sapiens, UniProt P05019); assay: Western ligand blots with 125I-labeled IGF-1; format: binding; conditions: data not shown
[4] = ICV 18 μg over 6 h, basal period
[5] = ICV 18 μg over 6 h, hyperinsulinemic clamp

Chain of IGF-1 (P05019 49-118): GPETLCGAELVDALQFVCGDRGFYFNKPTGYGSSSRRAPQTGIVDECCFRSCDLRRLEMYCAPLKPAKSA

Row | humanin in the rat periphery (Sprague-Dawley rats [1]; after ICV infusion) | binding to 125I-labeled IGF-1 (IGF-1) | Molecule | Glycogen synthesis, Basal (Sprague-Dawley rats [1]; [4]) | Glycolysis, Basal (Sprague-Dawley rats [1]; [4]) | HGP, Basal (Sprague-Dawley rats [1]; [4]) | FFA (Sprague-Dawley rats [1]; [5]) | Glycogen synthesis, Clamp (Sprague-Dawley rats [1]; [5]) | Glycolysis, Clamp (Sprague-Dawley rats [1]; [5]) | HGP, Clamp (Sprague-Dawley rats [1]; [5]) | Rd, Clamp (Sprague-Dawley rats [1]; [5]) | GIR, Clamp (Sprague-Dawley rats [1]; ICV 18 μg over 6 h, hyperinsulinemic clamp 3 mU/kg/min) | increase in peripheral glucose uptake (Rd) (Sprague-Dawley rats [1]; ICV HN, hyperinsulinemic clamp) | more reduction in hepatic glucose production (HGP) (Sprague-Dawley rats [1]; ICV HN, hyperinsulinemic clamp) | suppression of FFA compared to controls (Sprague-Dawley rats [1]; ICV HN, hyperinsulinemic clamp) | glucose infusion rate (GIR) relative to aCSF (Sprague-Dawley rats [1]; ICV HN, hyperinsulinemic clamp 3 mU/kg/min) | glucose infusion rate (GIR) during the hyperinsulinemic clamp (Sprague-Dawley rats [1]; ICV HN, Example Summary, in mg/kg/min (unit assumed)) | peripheral insulin action (Sprague-Dawley rats [2]) | increase in STAT-3 phosphorylation in hypothalamic tissues [3]
1 | No humanin was detected | – | CC[C@H](C)[C@H](NC(=O)[C@H](CCC(=O)O)NC(=O)[C@H](CO)NC(=O)[C@@H](NC(=O)[C@H](CC(C)C)NC(=O)[C@H](CC(C)C)NC(=O)[C@H](CC(C)C)NC(=O)[C@H](CC(C)C)NC(=O)[C@H](CS)NC(=O)[C@H](CO)NC(=O)[C@H](Cc1ccccc1)NC(=O)CNC(=O)[C@H](CCCNC(=N)N)NC(=O)[C@@H]1CCCN1C(=O)[C@H](C)NC(=O)[C@@H](N)CCSC)[C@@H](C)O)C(=O)N[C@@H](CC(=O)O)C(=O)N[C@@H](CC(C)C)C(=O)N1CCC[C@H]1C(=O)N[C@H](C(=O)N[C@@H](CCCCN)C(=O)N[C@@H](CCCNC(=N)N)C(=O)N[C@@H](CCCNC(=N)N)C(=O)N[C@@H](C)C(=O)O)C(C)C [Humanin, maprgfscll lltseidlpv krra] | 4.89 ± 0.61 | 7.99 ± 0.73 mg/kg/min | 12.87 ± 1.6 mg/kg/min | 0.33 ± 0.03 mEq/L | 9.75 ± 0.92 | 15.1 ± 1.0 mg/kg/min | 2.27 ± 0.37 mg/kg/min | 24.9 ± 1.6 mg/kg/min | 22.8 ± 1.64 mg/kg/min | ~150% | ~50% | significantly higher | 165 % of aCSF | 25.2 ±2.6 | Neither HN, nor the non-BP3-binding F6AHN (at doses of 0.0375 mg/kg/hr) altered peripheral insulin action | 10 fold
2 | – | bound equally | IGFBP-3: non glycosylated hIGFBP-3 (IGF binding protein-3), provided by Celtrix | – | – | – | – | – | – | – | – | – | – | – | – | – | – | – | –

Source: patent US9034825B2, “Treatment of myocardial injury with humanin analogs” (Albert Einstein College of Medicine of Yeshiva University, priority 2007, dated 2015)
